Among the test systems are 786-0 renal; CAKI-1 renal; HCT-116 colon; HOP-62 NSCLC; KM12 colon; MCF7 breast; MDA-MB-435; SF-268 CNS; SR leukemia; UACC-257 melanoma.
Test in all cases: growth of human tumour cells (NCI), 48 h

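All cell lines were grown in 96-well plates and treated with compound for 48 hours. GI50 = concentration required for 50% inhibition of growth. Definition used: TGI = concentration required for complete inhibition of growth.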

Turning to `O=C(Nc1nc2ccc(OC(F)(F)F)cc2s1)c1ccc(F)cc1`, the GI50 with 786-0 renal is 3.47 µM; with CAKI-1 renal, 2.29 µM; in the assay on HCT-116 colon it was 2.98 µM; with HOP-62 NSCLC, 3.81 µM; with KM12 colon, 2.69 µM; in the assay with MCF7 breast, 2.12 µM. In addition, the GI50 in the assay on MDA-MB-435 was 2.98 µM; in the assay on SF-268 CNS, 3.71 µM; in the assay on SR leukemia, 3.68 µM; with UACC-257 melanoma it was 3.57 µM. Besides, the TGI with 786-0 renal was > 100 µM; in the assay on CAKI-1 renal, 7.26 µM; in the assay on HCT-116 colon, 10.1 µM; in the assay on HOP-62 NSCLC, 26.9 µM; in the assay on KM12 colon, > 100 µM; with MCF7 breast it was 18.2 µM. The TGI is > 100 µM in the assay with MDA-MB-435, > 100 µM in the assay on SF-268 CNS, 14.1 µM in the assay with SR leukemia and 26.7 µM with UACC-257 melanoma.
In the case of `CCN(CC)CCOc1ccc2c(-c3ccccc3)c(-c3ccc(OC)cc3)c(=O)oc2c1`, the GI50 in the assay with 786-0 renal was 2.22 µM; in the assay with CAKI-1 renal it was 3.07 µM; in the assay on HCT-116 colon, 2.78 µM; in the assay with HOP-62 NSCLC it was 4.47 µM; in the assay with KM12 colon, 3.83 µM; in the assay on MCF7 breast, 4.33 µM. In addition, the GI50 in the assay on MDA-MB-435 is 3.3 µM; with SF-268 CNS it was 8.4 µM; in the assay with SR leukemia, 1.62 µM; in the assay on UACC-257 melanoma, 2.47 µM. The TGI in the assay on 786-0 renal was determined as 5.37 µM; in the assay on CAKI-1 renal, 10.3 µM; in the assay with HCT-116 colon, 10.5 µM; in the assay on HOP-62 NSCLC it was 16.8 µM; in the assay on KM12 colon it was 14.1 µM; with MCF7 breast it was 14.1 µM. Besides, the TGI stood at 10.6 µM in the assay on MDA-MB-435, 21.7 µM with SF-268 CNS, 4.33 µM with SR leukemia and 7 µM in the assay on UACC-257 melanoma.
With `O=C1NC(=NCCc2ccccc2F)S/C1=C\c1ccc2ncccc2c1`, the GI50 was 8.71 µM in the assay on 786-0 renal; 5.29 µM in the assay with CAKI-1 renal; 1.27 µM with HCT-116 colon; 9.31 µM in the assay on HOP-62 NSCLC; 4.02 µM with KM12 colon; 1.68 µM with MCF7 breast. Further, the GI50 in the assay on MDA-MB-435 was 1.57 µM; in the assay with SF-268 CNS it was 7.76 µM; in the assay on SR leukemia it was 0.88 µM; in the assay with UACC-257 melanoma it was 9.35 µM. Also, the TGI in the assay on 786-0 renal is > 25 µM; in the assay with CAKI-1 renal it was > 19.7 µM; in the assay on HCT-116 colon it was > 25 µM; in the assay on HOP-62 NSCLC it was > 25 µM; in the assay on KM12 colon it was > 25 µM; in the assay on MCF7 breast, > 25 µM. Moreover, the TGI with MDA-MB-435 is > 16.8 µM; with SF-268 CNS, > 25 µM; with SR leukemia, 8.83 µM; in the assay on UACC-257 melanoma, > 25 µM.
With `Oc1ccc(/C=N/NC(=S)Nc2ccccc2)nc1`, the GI50 is 1.84 µM in the assay with 786-0 renal; 0.667 µM with CAKI-1 renal; 1.42 µM in the assay on HCT-116 colon; 0.766 µM in the assay with HOP-62 NSCLC; 1.91 µM in the assay on KM12 colon; 2.73 µM with MCF7 breast. Further, the GI50 with MDA-MB-435 is 2.19 µM; with SF-268 CNS, 0.969 µM; in the assay with SR leukemia, 0.582 µM; in the assay on UACC-257 melanoma, 2.18 µM. The TGI in the assay with 786-0 renal is 12.4 µM; with CAKI-1 renal, > 100 µM; in the assay with HCT-116 colon it was > 100 µM; in the assay with HOP-62 NSCLC, 7.29 µM; in the assay on KM12 colon it was > 100 µM; in the assay with MCF7 breast, > 100 µM. The TGI in the assay on MDA-MB-435 was > 100 µM; in the assay with SF-268 CNS it was > 100 µM; in the assay on SR leukemia it was > 100 µM; with UACC-257 melanoma, 6.84 µM.
Take `COC(=O)NC1=Nc2ccccc2C(=O)NN1`: the TGI in the assay on 786-0 renal, in the assay with CAKI-1 renal, with HCT-116 colon, with HOP-62 NSCLC, in the assay on KM12 colon and in the assay on MCF7 breast was > 100 µM each time. Besides, the TGI in the assay with MDA-MB-435, with SF-268 CNS, with SR leukemia and in the assay with UACC-257 melanoma was > 100 µM throughout.
Turning to `O=C(O)c1cc(-c2ccc(-c3ccccc3)cc2)nc2cc3ccccc3cc12`, the TGI in the assay with 786-0 renal is 67.6 µM; in the assay with CAKI-1 renal, > 100 µM; in the assay on HCT-116 colon it was > 100 µM; with HOP-62 NSCLC, > 100 µM; in the assay with KM12 colon, > 100 µM; in the assay with MCF7 breast, > 100 µM. Further, the TGI in the assay on MDA-MB-435, with SF-268 CNS, with SR leukemia and in the assay with UACC-257 melanoma was > 100 µM throughout.
On to `N#Cc1ncc(-c2ccc(C(F)(F)F)cc2)c(NC2CCCCCC2)n1`, for which the GI50 with 786-0 renal was 47.7 µM; with CAKI-1 renal it was 18.3 µM; in the assay with HCT-116 colon it was 5.25 µM; in the assay with HOP-62 NSCLC it was > 100 µM; in the assay with KM12 colon, 13.6 µM; in the assay with MCF7 breast, 5.68 µM. Also, the GI50 in the assay with MDA-MB-435 is 29.1 µM; in the assay with SF-268 CNS it was 27.7 µM; with SR leukemia, 16.6 µM; with UACC-257 melanoma, 13.7 µM. Also, the TGI in the assay on 786-0 renal, with CAKI-1 renal, with HCT-116 colon, in the assay on HOP-62 NSCLC, in the assay on KM12 colon and in the assay on MCF7 breast was > 100 µM each time. The TGI in the assay on MDA-MB-435, with SF-268 CNS, in the assay on SR leukemia and with UACC-257 melanoma was > 100 µM throughout.
On to `CC1(C)CCC2(C(=O)O)C(O)CC3(C)C(=CCC4C5(C)CCC(OC6OCC(O)C(O)C6OC6OCC(O)C(O)C6OC6OCC(O)C(OC7OC(CO)C(O)C(O)C7O)C6O)C(C)(C)C5CCC43C)C2C1` (stereo not given), for which the TGI with 786-0 renal was > 100 µM; in the assay on CAKI-1 renal, > 100 µM; with HCT-116 colon, > 100 µM; in the assay on HOP-62 NSCLC, > 100 µM; in the assay on KM12 colon, 44.1 µM; with MCF7 breast, > 100 µM. Moreover, the TGI is 93 µM in the assay with MDA-MB-435, 64 µM in the assay on SF-268 CNS, 37.9 µM with SR leukemia and > 100 µM with UACC-257 melanoma.
Consider `c1ccc(C2=Nc3ccccc3N3CNN=C23)cc1`, for which the GI50 in the assay on 786-0 renal, in the assay on CAKI-1 renal, in the assay with HCT-116 colon, with HOP-62 NSCLC, in the assay with KM12 colon and in the assay with MCF7 breast was > 100 µM in each case. For the same molecule, the GI50 was > 100 µM in the assay on MDA-MB-435, > 100 µM with SF-268 CNS, 25 µM in the assay on SR leukemia and > 100 µM with UACC-257 melanoma. For the same molecule, the TGI in the assay on 786-0 renal, with CAKI-1 renal, in the assay on HCT-116 colon, with HOP-62 NSCLC, with KM12 colon and in the assay with MCF7 breast was > 100 µM in each case. Also, the TGI in the assay on MDA-MB-435, with SF-268 CNS, in the assay with SR leukemia and with UACC-257 melanoma was > 100 µM in each case.

(Values after PubChem BioAssay (NCI).)
